Source: publication PMC6268252, “Synthesis and Antiviral Activity of Conformational Analogues of Leucamide A” (Molecules, 2012)
Read-outs that look alike come from different tables or passages of the source.

Key:
[1] = test system: Influenza A virus H3N2 (A3 China/15/90); assay: Inhibition of influenza A virus replication (virus-induced CPE) in MDCK cells; assay type: cell-based; conditions: influenza A H3N2 (A3 China/15/90); for IC50: concentration required to reduce virus-induced CPE in MDCK cells by 50%; for activity against influenza A virus (in words): MDCK cells
in vitro = conditions: dog
[2] = test system: Influenza A virus H3N2 (A3 China/15/90); parameters: method as in PMID 16183283; conditions: previously reported active compound; read-out: IC50 against influenza A virus; cited from earlier work
several tumor cell lines = test system: several tumor cell lines; parameters: method as in PMID 12098321; conditions: cited from earlier work
[3] = test system: influenza A virus, herpes simplex type 2 virus (HSV2), hepatitis B virus (HBV); parameters: method as in PMID 16183283, PMID 18663717; conditions: reported before; cited from earlier work

| Structure (SMILES) | IC50 [1] [µM] | CC50 (in vitro) [µM] | IC50 [2] [µM] | activity against influenza A virus (in words) [1] | cytotoxicity toward tumor cell lines (in words) (several tumor cell lines) | antiviral activity (in words) [3] |
| --- | --- | --- | --- | --- | --- | --- |
| Cc1oc2nc1C(=O)N[C@@H](C)c1nc(co1)C(=O)NCCC(=O)N[C@@H](C(C)C)c1nc-2cs1 [Compound 3] | 163 | > 265 | – | – | – | – |
| Cc1oc2nc1C(=O)N[C@@H](C)c1nc(co1)C(=O)NCCCC(=O)N[C@@H](C(C)C)c1nc-2cs1 [Compound 4] | 115 | 595 | – | – | – | – |
| Cc1oc2nc1C(=O)N[C@@H](C)c1nc(co1)C(=O)NCCCCC(=O)N[C@@H](C(C)C)c1nc-2cs1 [Compound 5] | 258 | 578 | – | – | – | – |
| NC(=O)c1ncn([C@@H]2O[C@H](CO)[C@@H](O)[C@H]2O)n1 [Ribavirin, reference compound] | 16 | > 8200 | – | – | – | – |
| COc1ccccc1C(=O)N[C@H](c1nc(-c2nc(C(=O)O)c(C)o2)cs1)C(C)C [Compound 10] | – | – | 70 | – | – | – |
| Cc1oc2nc1C(=O)N[C@@H](C)c1nc(co1)C(=O)NCCCCCC(=O)N[C@@H](C(C)C)c1nc-2cs1 [Compound 6] | 41 | 374 | – | – | – | – |
| Cc1oc2nc1C(=O)N[C@@H](C)c1nc(co1)C(=O)N[C@@H](CC(C)C)C(=O)N1CCC[C@H]1C(=O)N[C@@H](C(C)C)c1nc-2cs1 [Leucamide A] | – | 787 | – | inactive | moderately cytotoxic | did not show any antiviral activity |
| Cc1oc2nc1C(=O)N[C@@H](C)c1nc(co1)C(=O)NCC(=O)N[C@@H](C(C)C)c1nc-2cs1 [Compound 2] | – | > 273 | – | inactive | – | – |
